Test results: patent publication US20070128217A1 (priority 2003, published 2007)

Experiments:
[1] = system: recombinant human anti-SARS-CoV antibody 03-018; format: binding; parameters: Binding of antibody 03-018 to linear peptides of the N protein of SARS-CoV Urbani / Binding of antibody 03-018 to looped/cyclic peptides of the N protein of SARS-CoV Urbani: unit not given here
[2] = system: antibodies in sera from SARS patients (sera 1a, 1b, 2, 6, 37, 62, London, SARS-yellow, SARS-green); format: binding, human; parameters: Binding of serum 6 to linear peptides of protein X1 of SARS-CoV Urbani / Binding of serum 37 to linear peptides of protein X1 of SARS-CoV Urbani / Binding of serum 6 to looped/cyclic peptide (PEPSCAN-ELISA) / Binding of serum 37 to looped/cyclic peptide (PEPSCAN-ELISA) / Binding of serum 37 to looped/cyclic peptides of protein X1 of SARS-CoV Urbani / Binding of serum 6 to linear peptides of protein X2 / Binding of serum 37 to linear peptides of protein X2 / Binding of serum 37 to looped/cyclic peptides of protein X2 of SARS-CoV Urbani / Binding of serum 6 to linear peptides of protein M of SARS-CoV Urbani / Binding of serum 37 to linear peptides of protein M of SARS-CoV Urbani / Binding of serum 6 to looped/cyclic peptides of protein M of SARS-CoV Urbani / Binding of serum 37 to looped/cyclic peptides of protein M of SARS-CoV Urbani / Binding of serum 6 to linear peptides of protein X3 of SARS-CoV Urbani / Binding of serum 37 to linear peptides of protein X3 of SARS-CoV Urbani / Binding of serum 37 to looped/cyclic peptides of protein X3 of SARS-CoV Urbani / Binding of serum 6 to linear peptides of protein X4 of SARS-CoV Urbani / Binding of serum 37 to linear peptides of protein X4 of SARS-CoV Urbani / Binding of serum 37 to looped/cyclic peptides of protein X4 of SARS-CoV Urbani / Binding of serum 6 to linear peptides of protein X5 of SARS-CoV Urbani / Binding of serum 37 to linear peptides of protein X5 of SARS-CoV Urbani / Binding of serum 37 to looped/cyclic peptides of protein X5 of SARS-CoV Urbani / Binding of serum 6 to linear peptides of protein N of SARS-CoV Urbani / Binding of serum 37 to linear peptides of protein N of SARS-CoV Urbani / Binding of serum 6 to linear peptide (PEPSCAN-ELISA) / Binding of serum 1a to looped/cyclic peptides of protein N of SARS-CoV Urbani / Binding of serum 1b to looped/cyclic peptides of protein N of SARS-CoV Urbani / Binding of serum 2 to looped/cyclic peptides of protein N of SARS-CoV Urbani / Binding of serum 6 to looped/cyclic peptides of protein N of SARS-CoV Urbani / Binding of serum 37 to looped/cyclic peptides of protein N of SARS-CoV Urbani / Binding of serum 62 to looped/cyclic peptides of protein N of SARS-CoV Urbani / Binding of serum London to looped/cyclic peptides of protein N of SARS-CoV Urbani / Binding of serum SARS-green to looped/cyclic peptides of protein N of SARS-CoV Urbani: unit not given here
[3] = system: control sera (pooled serum of ten healthy LUMC hospital workers; commercial negative donor pooled serum from the Dutch bloodbank); format: binding, human; parameters: Binding of Control serum LUMC to linear peptides / Binding of Control serum Blood-bank to linear peptides / Binding of Control serum LUMC to looped peptides / Binding of Control Serum Blood-Bank to Looped peptides / Binding of Control serum LUMC to linear peptides of the protein M of SARS-CoV Urbani / Binding of Control serum Blood-bank to linear peptides of the protein M of SARS-CoV Urbani / Binding of Control serum LUMC to looped peptides of the protein M of SARS-CoV Urbani / Binding of Control Serum Blood-Bank to Looped peptides of the protein M of SARS-CoV Urbani: unit not given here
[4] = system: rabbit serum obtained by immunizing a rabbit with the SARS-CoV strain Frankfurt 1; format: binding; parameters: Binding of a rabbit serum to linear peptides / Binding of a rabbit serum to looped peptides / Rabbit serum linear peptides / Rabbit serum looped peptides / Binding of a rabbit serum to linear peptides of protein N of SARS-CoV Urbani (Rabbit serum linear peptides) / Binding of a rabbit serum to looped/cyclic peptides of protein N of SARS-CoV Urbani (Rabbit serum looped peptides): unit not given here

| Sequence | Binding of antibody 03-018 to linear peptides of the N protein of SARS-CoV Urbani [1] | Binding of antibody 03-018 to looped/cyclic peptides of the N protein of SARS-CoV Urbani [1] | Binding of serum 1a to linear peptides of protein N of SARS-CoV Urbani [2] | Binding of serum 1a to looped/cyclic peptides of protein N of SARS-CoV Urbani [2] | Binding of serum 1b to linear peptides of protein N of SARS-CoV Urbani [2] | Binding of serum 1b to looped/cyclic peptides of protein N of SARS-CoV Urbani [2] | Binding of serum 2 to linear peptides of protein N of SARS-CoV Urbani [2] | Binding of serum 2 to looped/cyclic peptides of protein N of SARS-CoV Urbani [2] | Binding of serum 6 to looped/cyclic peptides of protein N of SARS-CoV Urbani [2] | Binding of serum 37 to looped/cyclic peptides of protein N of SARS-CoV Urbani [2] | Binding of serum 62 to looped/cyclic peptides of protein N of SARS-CoV Urbani [2] | Binding of serum London to looped/cyclic peptides of protein N of SARS-CoV Urbani [2] | Binding of serum SARS-green to looped/cyclic peptides of protein N of SARS-CoV Urbani [2] | Binding of serum SARS-yellow to looped/cyclic peptides of protein N of SARS-CoV Urbani [2] | Binding of Control Serum Blood-Bank to Looped peptides [3] | Binding of Control serum Blood-bank to linear peptides [3] | Binding of Control serum LUMC to linear peptides [3] | Binding of Control serum LUMC to looped peptides [3] | Binding of a rabbit serum to linear peptides of protein N of SARS-CoV Urbani (Rabbit serum linear peptides) [4] | Binding of a rabbit serum to looped/cyclic peptides of protein N of SARS-CoV Urbani (Rabbit serum looped peptides) [4] | also measured |
| --- | --- | --- | --- | --- | --- | --- | --- | --- | --- | --- | --- | --- | --- | --- | --- | --- | --- | --- | --- | --- | --- |
| RRVRGGDGKMKELSP | 0.1 | 0.2 | 0.3 | 0.3 | 0.2 | 0.1 | 0.4 | 0.3 | 0.2 | 0.4 | 0.3 | 0.4 | 0.1 | 0.3 | 0.6 | 0.9 | 0.9 | 0.6 | 0.2 | 0.4 | Binding of serum 6 to linear peptides of protein N of SARS-CoV Urbani [2]: 0.2; Binding of serum 37 to linear peptides of protein N of SARS-CoV Urbani [2]: 0.7; Binding of serum 62 to linear peptides of protein N of SARS-CoV Urbani [2]: 0.8; Binding of serum London to linear peptides of protein N of SARS-CoV Urbani [2]: 0.6; Binding of serum SARS-green to linear peptides of protein N of SARS-CoV Urbani [2]: 0.4; Binding of serum SARS-yellow to linear peptides of protein N of SARS-CoV Urbani [2]: 0.8 |
| RSAPRITFGGPTDST | – | – | 0.2 | 0.3 | 0.1 | 0.2 | 0.1 | 0.3 | 0.2 | 0.5 | 0.4 | 0.3 | 0.4 | 0.5 | 0.6 | 0.6 | 0.5 | 0.6 | 0.3 | 0.7 | Recognition of the peptide by antibody 03-018 [1]: recognized; Binding of serum 6 to linear peptides of protein N of SARS-CoV Urbani [2]: 0.1; Binding of serum 37 to linear peptides of protein N of SARS-CoV Urbani [2]: 0.6; Binding of serum 62 to linear peptides of protein N of SARS-CoV Urbani [2]: 0.6; Binding of serum London to linear peptides of protein N of SARS-CoV Urbani [2]: 0.5; Binding of serum SARS-green to linear peptides of protein N of SARS-CoV Urbani [2]: 0.4; Binding of serum SARS-yellow to linear peptides of protein N of SARS-CoV Urbani [2]: 0.5 |
| RSRGNSRNSTPGSSR | 0.1 | 0.2 | – | 0.3 | – | 0.1 | – | 0.2 | 0.2 | 0.2 | 0.1 | 0.2 | 0.1 | 0.1 | 0.3 | 0.8 | 0.6 | 0.3 | 0.4 | 1.1 | Binding of serum 1a to linear peptide (PEPSCAN-ELISA) [2]: 0.7; Binding of serum 1b to linear peptide (PEPSCAN-ELISA) [2]: 0.4; Binding of serum 2 to linear peptide (PEPSCAN-ELISA) [2]: 0.2; Binding of serum 6 to linear peptide (PEPSCAN-ELISA) [2]: 0.2; Binding of serum 37 to linear peptide (PEPSCAN-ELISA) [2]: 0.7; Binding of serum 62 to linear peptide (PEPSCAN-ELISA) [2]: 0.6; Binding of serum London to linear peptide (PEPSCAN-ELISA) [2]: 0.5; Binding of serum SARS-green to linear peptide (PEPSCAN-ELISA) [2]: 0.2; Binding of serum SARS-yellow to linear peptide (PEPSCAN-ELISA) [2]: 0.6 |
| SAAEASKKPRQKRTA | 0.1 | 0.2 | – | 0.2 | – | 0.1 | – | 0.2 | 0.1 | 0.4 | 0.3 | 0.3 | 0.1 | 0.2 | 0.4 | 0.8 | 0.8 | 0.4 | 0.2 | 0.3 | Recognition of the peptide by sera of SARS-CoV infected individuals, and form (linear, looped/cyclic) in which it is recognized [2]: recognized in linear form |
